In ChEMBL document CHEMBL1201862, “PubChem BioAssay data set” (2004):
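96-well plates; 48 h exposure; 5 concentrations. Endpoints by linear interpolation between flanking doses. Not reached: highest tested concentration assigned. GI50: concentration for 50% inhibition of growth.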 The source made the active and inactive calls. Rule as the data show it: active = GI50 up to about 1.1 µM and inactive = higher.

Tests used:
Assay in all cases: NCI anticancer screen, dose series, 48 h
786-0 = test system: 786-0
BT-549 = test system: BT-549
COLO 205 = test system: COLO 205
HCC 2998 = test system: HCC 2998
HCT-15 = test system: HCT-15
HT-29 = test system: HT-29
Hs-578T = test system: Hs-578T
KM12 = test system: KM12
LOX IMVI = test system: LOX IMVI
MDA-MB-435 = test system: MDA-MB-435
Malme-3M = test system: Malme-3M
NCI-H23 = test system: NCI-H23
OVCAR-3 = test system: OVCAR-3
OVCAR-5 = test system: OVCAR-5
OVCAR-8 = test system: OVCAR-8
PC-3 = test system: PC-3
SK-MEL-28 = test system: SK-MEL-28
SNB-19 = test system: SNB-19
UACC-62 = test system: UACC-62
UO-31 = test system: UO-31

Row | SMILES | GI50 (786-0) | GI50 (BT-549) | GI50 (COLO 205) | GI50 (HCC 2998) | GI50 (HCT-15) [µM] | GI50 (HT-29) | GI50 (Hs-578T) | GI50 (KM12) | GI50 (LOX IMVI) | GI50 (MDA-MB-435) | GI50 (Malme-3M) | GI50 (NCI-H23) | GI50 (OVCAR-3) | GI50 (OVCAR-5) | GI50 (OVCAR-8) | GI50 (PC-3) | GI50 (SK-MEL-28) | GI50 (SNB-19) | GI50 (UACC-62) | GI50 (UO-31)
1 | Nc1nc(SC/C=C/c2ccccc2)c2[nH]cnc2n1 | > 100 µM (inactive) | 28.2 µM (inactive) | > 100 µM (inactive) | > 100 µM (inactive) | 32.8 | > 100 µM (inactive) | 16.7 µM (inactive) | > 100 µM (inactive) | 53.1 µM (inactive) | > 100 µM (inactive) | > 100 µM (inactive) | > 100 µM (inactive) | 30.4 µM (inactive) | > 100 µM (inactive) | 74.5 µM (inactive) | > 100 µM (inactive) | > 100 µM (inactive) | > 100 µM (inactive) | > 100 µM (inactive) | 46.8 µM (inactive)
2 | O=C1c2ccccc2C(=O)c2nn(N=P(CP(=Nn3nc4c(n3)C(=O)c3ccccc3C4=O)(c3ccccc3)c3ccccc3)(c3ccccc3)c3ccccc3)nc21 | > 100 µM (inactive) | > 100 µM (inactive) | > 100 µM (inactive) | > 100 µM (inactive) | > 100 | > 100 µM (inactive) | > 100 µM (inactive) | > 100 µM (inactive) | > 100 µM (inactive) | > 100 µM (inactive) | > 100 µM (inactive) | > 100 µM (inactive) | > 100 µM (inactive) | > 100 µM (inactive) | > 100 µM (inactive) | > 100 µM (inactive) | > 100 µM (inactive) | > 100 µM (inactive) | > 100 µM (inactive) | –
3 | O=C1/C(=C/c2ccc(Cl)cc2)CCC/C1=C\c1ccc(O)c(CN2CCCCC2)c1 | 15 µM (inactive) | 11.2 µM (inactive) | 20.3 µM (inactive) | 20.2 µM (inactive) | 12.2 | 3.54 µM (inactive) | 15.7 µM (inactive) | 4.51 µM (inactive) | 13.1 µM (inactive) | 17 µM (inactive) | 21.4 µM (inactive) | 19.1 µM (inactive) | 24.1 µM (inactive) | 23.8 µM (inactive) | 14.5 µM (inactive) | 8.91 µM (inactive) | 21 µM (inactive) | 33 µM (inactive) | 16.1 µM (inactive) | 16.3 µM (inactive)
4 | CCOP1(=O)CC(C)=C(Cl)C(OC)C1 (stereo unspecified) | > 100 µM (inactive) | > 100 µM (inactive) | > 100 µM (inactive) | > 100 µM (inactive) | > 100 | > 100 µM (inactive) | > 100 µM (inactive) | > 100 µM (inactive) | 61.7 µM (inactive) | > 100 µM (inactive) | > 100 µM (inactive) | > 100 µM (inactive) | > 100 µM (inactive) | > 100 µM (inactive) | > 100 µM (inactive) | > 100 µM (inactive) | > 100 µM (inactive) | > 100 µM (inactive) | > 100 µM (inactive) | –
5 | Cc1c2cnccc2c(C)c2c1[nH]c1ccc(O)cc12 | 0.241 µM (active) | 6.01 µM (inactive) | 2.68 µM (inactive) | 1.57 µM (inactive) | 0.971 | 1.51 µM (inactive) | > 10 µM (inactive) | 0.962 µM (active) | 0.342 µM (active) | 1.78 µM (inactive) | 1.35 µM (inactive) | 1.57 µM (inactive) | 1.13 µM (inactive) | 2.4 µM (inactive) | 0.607 µM (active) | 2.15 µM (inactive) | 3.01 µM (inactive) | 3.21 µM (inactive) | 7.76 µM (inactive) | –
6 | CNc1ccc2nc(-c3ccc(OC(=O)N(C)C)cc3)cn2c1 | 14.5 µM (inactive) | 17.8 µM (inactive) | 17.1 µM (inactive) | 30.1 µM (inactive) | 19.5 | 17.7 µM (inactive) | 41.2 µM (inactive) | 17.1 µM (inactive) | 17.7 µM (inactive) | 17 µM (inactive) | 54.3 µM (inactive) | 21.2 µM (inactive) | 40.7 µM (inactive) | 22.9 µM (inactive) | 15.7 µM (inactive) | 16 µM (inactive) | 45.8 µM (inactive) | 16.1 µM (inactive) | 18.8 µM (inactive) | 21.1 µM (inactive)
7 | O=C1Oc2ccccc2N/C1=C/C(=O)c1ccc(Cl)cc1 | > 100 µM (inactive) | > 100 µM (inactive) | > 100 µM (inactive) | 63.5 µM (inactive) | > 100 | > 100 µM (inactive) | > 100 µM (inactive) | > 100 µM (inactive) | – | 61.4 µM (inactive) | > 100 µM (inactive) | > 100 µM (inactive) | 37.9 µM (inactive) | > 100 µM (inactive) | 42.5 µM (inactive) | 28.1 µM (inactive) | – | > 100 µM (inactive) | 32.4 µM (inactive) | 73.5 µM (inactive)
8 | O=C1/C(=C/c2ccc(F)cc2)CNC/C1=C\c1ccc(F)cc1 | 0.762 µM (active) | 1.01 µM (active) | 1.44 µM (inactive) | 0.214 µM (active) | 0.498 | 0.664 µM (active) | 4.6 µM (inactive) | 0.53 µM (active) | 0.63 µM (active) | 2.49 µM (inactive) | 3.28 µM (inactive) | 1.5 µM (inactive) | 1.65 µM (inactive) | 2.88 µM (inactive) | 2.07 µM (inactive) | 1.79 µM (inactive) | 1.05 µM (active) | 1.59 µM (inactive) | 2.32 µM (inactive) | 1.81 µM (inactive)
9 | O=C(/N=N/c1cc(Cl)ccc1Cl)NNc1cc(Cl)ccc1Cl | – | > 10 µM (inactive) | 21.8 µM (inactive) | 25.9 µM (inactive) | 16.5 | 17.5 µM (inactive) | 25.5 µM (inactive) | 16.7 µM (inactive) | – | 13.7 µM (inactive) | 23.1 µM (inactive) | 18.1 µM (inactive) | 16.8 µM (inactive) | 17.6 µM (inactive) | 26.8 µM (inactive) | 10.9 µM (inactive) | 23.5 µM (inactive) | > 10 µM (inactive) | 11.2 µM (inactive) | 11.7 µM (inactive)
10 | C=CC[C@@]1(C(=O)OC)[C@H](Sc2ccccc2)C1(C)C | 33.4 µM (inactive) | 46 µM (inactive) | 33.3 µM (inactive) | 27 µM (inactive) | 31 | 24.9 µM (inactive) | 55.6 µM (inactive) | 35.1 µM (inactive) | – | 30.9 µM (inactive) | 29.4 µM (inactive) | 23.2 µM (inactive) | 44.3 µM (inactive) | 80.9 µM (inactive) | 53.8 µM (inactive) | 47.3 µM (inactive) | 78.2 µM (inactive) | > 100 µM (inactive) | 45.5 µM (inactive) | 83 µM (inactive)
11 | Cc1cc(O)c2c(c1O)C(=O)C1=C(C2=O)C(=O)C2C(O)C1C1C(O)CC(O)=C3C(=O)c4c(O)cc(C)c(O)c4C(=O)C321 (stereo unspecified) | 1.71 µM (inactive) | 3.66 µM (inactive) | 0.834 µM (active) | 1.18 µM (inactive) | 2.04 | 0.555 µM (active) | 0.553 µM (active) | 0.697 µM (active) | 1.57 µM (inactive) | 1.36 µM (inactive) | 0.982 µM (active) | 2.73 µM (inactive) | 1.3 µM (inactive) | 3.62 µM (inactive) | 1.06 µM (active) | 0.628 µM (active) | 1.55 µM (inactive) | 1.2 µM (inactive) | 1.12 µM (active) | –
12 | N#CC12C(=O)N3C(=NC(c4ccco4)NC3c3ccco3)C1(C#N)C(c1ccco1)NC1=C2CCCC1 (stereo unspecified) | > 100 µM (inactive) | > 100 µM (inactive) | > 100 µM (inactive) | > 100 µM (inactive) | > 100 | > 100 µM (inactive) | > 100 µM (inactive) | > 100 µM (inactive) | > 100 µM (inactive) | > 100 µM (inactive) | > 100 µM (inactive) | > 100 µM (inactive) | – | > 100 µM (inactive) | > 100 µM (inactive) | > 100 µM (inactive) | > 100 µM (inactive) | > 100 µM (inactive) | > 100 µM (inactive) | > 100 µM (inactive)
13 | CSc1ccc(Nc2cc(=O)[nH]c(=O)[nH]2)cc1 | > 100 µM (inactive) | > 100 µM (inactive) | > 100 µM (inactive) | > 100 µM (inactive) | > 100 | > 100 µM (inactive) | > 100 µM (inactive) | – | > 100 µM (inactive) | > 100 µM (inactive) | > 100 µM (inactive) | > 100 µM (inactive) | > 100 µM (inactive) | > 100 µM (inactive) | 60.4 µM (inactive) | > 100 µM (inactive) | > 100 µM (inactive) | > 100 µM (inactive) | > 100 µM (inactive) | > 100 µM (inactive)
14 | NC(CCCCNc1ccn(C2OC(CO)C(O)C2O)c(=O)n1)C(=O)O (stereo unspecified) | > 100 µM (inactive) | > 100 µM (inactive) | > 100 µM (inactive) | 76.6 µM (inactive) | 74.5 | – | > 100 µM (inactive) | > 100 µM (inactive) | > 100 µM (inactive) | 88.1 µM (inactive) | > 100 µM (inactive) | – | > 100 µM (inactive) | > 100 µM (inactive) | 73.1 µM (inactive) | > 100 µM (inactive) | > 100 µM (inactive) | > 100 µM (inactive) | > 100 µM (inactive) | > 100 µM (inactive)
15 | Cc1csc(-c2cn(C)c3c2C(=O)C(=N)C=C3O)n1 | 32.4 µM (inactive) | 44.9 µM (inactive) | 4.53 µM (inactive) | 5 µM (inactive) | 6.59 | 8.69 µM (inactive) | 3.86 µM (inactive) | 11.2 µM (inactive) | 3.52 µM (inactive) | 4.28 µM (inactive) | – | 2.79 µM (inactive) | 6.41 µM (inactive) | 42.4 µM (inactive) | 6.34 µM (inactive) | 7.01 µM (inactive) | 20.3 µM (inactive) | 7.38 µM (inactive) | 7.59 µM (inactive) | 5.9 µM (inactive)
